Test results from article PMC9445081, “Structural basis for recognition of N-formyl peptides as pathogen-associated molecular patterns” (Nature Communications, 2022).
Numbering of substitutions follows the chain as printed. “And” between values parts separate entries of the source, which are not always exact repeats. Identical values can stand only once. Like-named read-outs stand apart in the source and are kept apart here. Where a SMILES comes first, the peptide text is derived from it. Where no end group is shown, it is not given here. The star is where a group is joined. For = O=C*

Legend:
FPR1 R84A = target: T1, FPR1 R84A (Homo sapiens, UniProt P21462, R84A); assay: cAMP inhibition assay, FPR1 R84A; type: cell-based; design: key to cAMP response, source data of Fig. 5c: % of maximal cAMP level for each construct
T1 construct: expressed in transfected cells; host or cells: HeLa cells, transient, pcDNA3.1(+)
T1 sequence (P21462 1-350 R84A): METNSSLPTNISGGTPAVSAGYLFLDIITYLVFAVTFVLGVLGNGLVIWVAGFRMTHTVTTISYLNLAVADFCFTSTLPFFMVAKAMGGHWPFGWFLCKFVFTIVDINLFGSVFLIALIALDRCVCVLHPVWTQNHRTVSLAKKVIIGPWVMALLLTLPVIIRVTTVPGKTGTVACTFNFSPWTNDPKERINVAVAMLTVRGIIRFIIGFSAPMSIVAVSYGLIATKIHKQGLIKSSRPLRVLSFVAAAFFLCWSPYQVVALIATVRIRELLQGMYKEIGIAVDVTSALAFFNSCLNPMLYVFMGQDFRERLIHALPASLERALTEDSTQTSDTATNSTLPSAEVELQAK
Source text: (§1) FPR1 cDNA in the pcDNA3.1(+) vector (Invitrogen) was used as a template for gene manipulation. The mutations of FPR1 were introduced in the receptor through overlap extension PCR with elaborately designed primers (GENEWIZ, Suzhou, China). The sequences of the primers were listed in Supplementary Table 2. Two fragments of FPR1 (separated at mutated positions) were assembled into pre-cut pcDNA3.1(+) vectors with the ClonExpress Ultra One Step Cloning Kit (Vazyme Biotech, C115). Plasmids with FPR1 mutations were confirmed by DNA sequencing (GENEWIZ).
(§2) For functional studies, FPR1 and its mutants were expressed in HeLa cells as above. The cells were resuspended in HBSS buffer plus 5 mM HEPES, 0.1% BSA (w/v) and 0.5 mM 3-isobutyl-1-methylxanthine and seeded into 384-well plates. […] AG-14 was synthesized by Sungening Biotechnology (Shenzhen, China). Different concentrations of the ligands were prepared plus a fixed dose of forskolin with the buffer above. […] Intracellular cAMP levels were measured with the LANCE Ultra cAMP kit (PerkinElmer, TRF0263) following the manufacturer’s instructions. […] Intracellular cAMP levels were calculated according to the TR-FRET signals of the samples and cAMP standards.
(§3) The data were analyzed with Prism 6.0 (GraphPad, San Diego, CA). For dose-response analysis, the curves were plotted with the log[agonist] vs. response equation (three parameters) in the software. Data points were presented as the percentages (mean ± SEM) of the maximal cAMP level for each construct, from at least three independent experiments, as indicated in figure legends. The pEC50 values were the negative logarithm of the EC50 values, which were obtained from the dose-response curves. For cell surface expression, data points were presented as the percentages (mean ± SEM) of the flow cytometry fluorescence signals of WT FPR1. For statistical comparison, a p-value of 0.05 or lower is considered statistically significant.

FPR1 R205A [1] = target: T2, FPR1 R205A (Homo sapiens, UniProt P21462, R205A); assay: cAMP inhibition assay, FPR1 R205A; type: cell-based; design: key to cAMP response, source data of Fig. 5c: % of maximal cAMP level for each construct; settings: for cAMP response, source data of Fig. 5c: FPR1 R205A, single replicate readings
T2 construct: expressed in transfected cells; host or cells: HeLa cells, transient, pcDNA3.1(+)
T2 sequence (P21462 1-350 R205A): T1 sequence (P21462 1-350 R84A) with A84R, R205A
Source text: as §1, §2, §3

FPR1 F291A = target: T3, FPR1 F291A (Homo sapiens, UniProt P21462, F291A); assay: cAMP inhibition assay, FPR1 F291A; type: cell-based; settings: FPR1 F291A, single replicate readings
T3 construct: expressed in transfected cells; host or cells: HeLa cells, transient, pcDNA3.1(+)
T3 sequence (P21462 1-350 F291A): T1 sequence (P21462 1-350 R84A) with A84R, F291A
Source text: as §1, §2, §3

FPR1 WT = target: T4, FPR1 WT (Homo sapiens, UniProt P21462); assay: cAMP inhibition assay, WT FPR1; type: cell-based
T4 construct: expressed in transfected cells; host or cells: HeLa cells, transient, pcDNA3.1(+)
T4 sequence (P21462 1-350): T1 sequence (P21462 1-350 R84A) with A84R
Source text: as §1
as §2, with “China).” for “China). Different concentrations of the ligands were prepared plus a fixed dose of forskolin with the buffer above.”
(§4) The data were analyzed with Prism 6.0 (GraphPad, San Diego, CA). […] For cell surface expression, data points were presented as the percentages (mean ± SEM) of the flow cytometry fluorescence signals of WT FPR1. […]

FPR1 R201A [2] = target: T5, FPR1 R201A (Homo sapiens, UniProt P21462, R201A); assay: cAMP inhibition assay, FPR1 R201A; type: cell-based
T5 construct: expressed in transfected cells; host or cells: HeLa cells, transient, pcDNA3.1(+)
T5 sequence (P21462 1-350 R201A): T1 sequence (P21462 1-350 R84A) with A84R, R201A
Source text: as §1
as §2, with “China).” for “China). Different concentrations of the ligands were prepared plus a fixed dose of forskolin with the buffer above.”
as §4

[3] = target: T6, WT FPR1 expressed in HeLa cells (human, UniProt P21462 1-350)
T6 sequence (looked up): T1 sequence (P21462 1-350 R84A) with A84R

FPR1 R205A [4] = target: T7, FPR1 R205A (human, UniProt P21462 1-350, R205A); assay: cell-based or functional assay
T7 sequence (looked up): T1 sequence (P21462 1-350 R84A) with A84R, R205A

FPR1 R201A [5] = target: T8, FPR1 R201A (human, UniProt P21462 1-350, R201A); assay: cell-based or functional assay
T8 sequence (looked up): T1 sequence (P21462 1-350 R84A) with A84R, R201A

[6] = target: T6, WT FPR1 expressed in HeLa cells; assay: cell-based or functional assay

COc1cc(C=NNC(=O)c2ccc3c(c2)OCO3)ccc1OCc1ccccc1 [Fig. 5c]
cAMP response, source data of Fig. 5c (FPR1 R84A; Log[M] -4.3, single replicate readings): 37.2 and 21.4 and -4.8 and 34.9 and 32.8 and 41.9
cAMP response, source data of Fig. 5c (FPR1 R84A; Log[M] -5.0, single replicate readings): 14.6 and -24.6 and 16.2 and 33.5 and 20.2 and 31.4
cAMP response, source data of Fig. 5c (FPR1 R84A; Log[M] -5.7, single replicate readings): 49.5 and 79.5 and 66.2 and 55.1 and 52.2 and 52.7
cAMP response, source data of Fig. 5c (FPR1 R84A; Log[M] -6.4, single replicate readings): 79.9 and 58.8 and 61.6 and 91.8 and 112.7 and 81.8
cAMP response, source data of Fig. 5c (FPR1 R84A; Log[M] -7.1, single replicate readings): 135.9 and 91.7 and 83.9 and 115.6 and 133.7 and 94.7
cAMP response, source data of Fig. 5c (FPR1 R84A; Log[M] -7.8, single replicate readings): 106.7 and 82.2 and 108.6 and 111.9 and 96.0 and 84.6
cAMP response, source data of Fig. 5c (FPR1 R84A; Log[M] -8.5, single replicate readings): 91.1 and 94.4 and 114.8 and 80.2 and 111.9 and 117.6
cAMP response, source data of Fig. 5c (FPR1 R205A [1]; Log[M] -4.3): 31.8 and 48.0 and 38.0 and 26.4 and 16.2 and 78.8
cAMP response, source data of Fig. 5c (FPR1 R205A [1]; Log[M] -5.0): 58.1 and 43.9 and 27.8 and 37.0 and 34.2 and 45.7
cAMP response, source data of Fig. 5c (FPR1 R205A [1]; Log[M] -5.7): 35.5 and 68.3 and 63.8 and 45.2 and 48.0 and 85.4
cAMP response, source data of Fig. 5c (FPR1 R205A [1]; Log[M] -6.4): 69.2 and 71.8 and 39.5 and 113.9 and 150.2 and 118.4
cAMP response, source data of Fig. 5c (FPR1 R205A [1]; Log[M] -7.1): 78.9 and 109.8 and 60.3 and 84.0 and 71.2 and 109.6
cAMP response, source data of Fig. 5c (FPR1 R205A [1]; Log[M] -7.8): 116.3 and 101.9 and 108.0 and 144.2 and 102.7 and 124.3
cAMP response, source data of Fig. 5c (FPR1 R205A [1]; Log[M] -8.5): 91.9 and 89.9 and 58.5 and 89.3 and 105.1 and 67.8
cAMP response, source data of Fig. 5c (FPR1 F291A; Log[M] -4.3): 33.9 and 34.1 and 26.7 and 28.4 and 24.2 and 31.1
cAMP response, source data of Fig. 5c (FPR1 F291A; Log[M] -5.0): 45.9 and 38.0 and 28.1 and 39.1 and 42.3 and 29.9
cAMP response, source data of Fig. 5c (FPR1 F291A; Log[M] -5.7): 66.9 and 58.1 and 74.7 and 72.6

CC[C@H](C)[C@H](NC(=O)[C@H](CCSC)NC=O)C(=O)N[C@@H](Cc1ccccc1)C(=O)N[C@@H](CC(C)C)C(=O)O [fMIFL, fMet-Ile-Phe-Leu] (For-MIFL-OH)
EC50 (FPR1 WT): 0.0631 nM
EC50 (FPR1 R201A [2]): 6.31 nM
EC50 (FPR1 R205A [1]): 2.51 nM

WKYMVm (peptide)
pEC50 of inhibition of forskolin-elevated cAMP, transfected HeLa cells [3]: 8.4

For-MIFL [fMet-Ile-Phe-Leu (fMIFL)]
pEC50 of inhibition of forskolin-elevated cAMP, transfected HeLa cells (FPR1 R205A [4]): 8.6
pEC50 of inhibition of forskolin-elevated cAMP, transfected HeLa cells (FPR1 R201A [5]): 8.2
pEC50 of inhibition of forskolin-elevated cAMP, transfected HeLa cells [6]: 10.2
